Results as given in patent publication US5118601A, “Method of screening purine nucleoside compounds or analogs for the ability to enhance the cellular synthesis and release of adenosine” (The Regents of the University of California, priority 1989, dated 1992).
“And” between values parts separate entries of the source, which are not always exact repeats. Equal values may be shown once. Values belong to the compound of their own block, whether it stands above or below them.

Key:
[1] = system: HPRT- neuroblastoma cells; experiment: Adenosine excretion by stimulated HPRT- neuroblastoma cells (calcium ionophore A23187); type: cell-based; conditions: for correction of lowered adenosine secretion of cells deficient in hypoxanthine phosphoribosyl transferase: pretreatment
Procedure: (§1) To induce ATP catabolism, the growth medium was replaced by medium containing micromolar amounts of the calcium ionophore A23187 and 1.0 μM deoxycoformycin.

[2] = system: pentylene tetrazol-induced seizures; experiment: Pentylene tetrazol-induced seizures in the rat; type: in vivo; conditions: 2000 mg/kg (total dose) intraperitoneal
[3] = system: Mouse bone marrow-derived mast cells; experiment: Mast cell leukotriene C4 release (radioimmune assay); type: cell-based; conditions: 100 μM for six days, challenged 20 minutes with A23187; control 51
Procedure: (§2) By preventing mast cell degranulation, it is possible to prevent or control a patient's allergic response. Bone marrow obtained from Balb/C mice femurs was cultured in a 1:1 mixture of Razin media and conditioned media, produced by co-culturing splenocytes from C57B1/6J and C3H mice in the present of Concanavalin A as described by Razin et al. in the Proc. Natl. Acad. Sci. USA 28: 2559-2561, 1981. After weekly passaging and at least 15 days in tissue culture, the resulting cells were 90% pure mast cells and 95% viable as assessed by Trypan blue exclusion. Cells exposed to ribavirin in culture were washed three times prior to use in experiments. Parallel cultures of cells grown in media alone were used as controls for pharmacologically manipulated mast cells. Cell growth was assessed by counting cells at particular time pints and comparing actual numbers of ribavirin-treated cells to numbers of cells grown in media alone.

[4] = system: ischemic myocardium
Procedure: Regional myocardial blood flow was measured using radiolabelled microspheres infused into the left atrium at 5 minutes (open) and 60 minutes (hatched) of occlusion. The means plus the standard deviations are graphed. The asterisks (*) identify differences from saline-treated dogs that are significant at p<0.01.
Thirteen mongrel dogs were anesthetized with phenobarbital. The anterior coronary vein was cannulated and a blood sample was collected into 2N perchloric acid. […] Regional myocardial blood flow was measured within 15 μm radiolabelled spheres infused into the left atrium at 5 and 60 minutes during the ischemic period, as described by Heymann et al. in Prog. […] The electrocardiogram and arterial pressure were monitored throughout the period of ischemia.

[5] = system: Mouse bone marrow-derived mast cells; experiment: Mast cell beta-hexosaminidase release (degranulation); type: cell-based
Procedure: as §2
β-hexosaminidase was chosen as a representative granule-associated, preformed mast cell mediator because it is easily quantitated, and its release nearly identically parallels that of histamine. Mouse bone marrow-derived mast cells were centrifuged at 200×g for 5 minutes, washed three times in Tyrode's buffer lacking divalent cations, sensitized for 30 minutes at 37° C. with anti-DNP (dinitrophenyl phosphate) IgE (1 μg/10^6 cells), and challenged with either DNP-BSA antigen ([…]/3×10^5 cells) or A23187 (10 μg/ml/3×10^5 cells) in 400 μl of complete Tyrode's buffer for 10 minutes at 37° C. Reaction mixtures were centrifuged at 200×g for 10 minutes, and supernatant and pellet β-hexasaminidase concentrations were assayed by the hydrolysis of p-nitrophenyl-β-D-glucosamide as described in Schwartz et al. in J. Immunol. […] Spontaneous β-hexosaminidase release was determined in unchallenged cells. The net % of β-hexosaminidase released is defined as follows: [formula] where [β-hex] is βhexosaminidase and super, is supernatant. When exogenous adenosine was present in reaction mixtures, it was added simultaneously with the secretagogue.

[6] = system: ischemic myocardium; experiment: Venous inosine levels during coronary artery occlusion in dogs; type: in vivo, dog; conditions: over the 60-minute assay period
Procedure: (§3) Thirteen mongrel dogs were anesthetized with phenobarbital. […] C.V. Dis. 20; 55 (1977). […] Two of the surviving saline-treated animals fibrillated. […] The range was 4.4 to 100 μM.
That the increase in the levels of adenosine is due, at least in part, to a reduction in the amount of ATP that is converted to inosine was shown by analysis of venous blood from dogs in Example III for inosine levels.

[7] = system: HPRT+ neuroblastoma cells; experiment: Adenosine excretion by stimulated HPRT+ neuroblastoma cells (calcium ionophore A23187); type: cell-based
Procedure: as §1

[8] = system: ischemic myocardium; experiment: Coronary venous adenosine during coronary artery occlusion in dogs; type: in vivo, dog
Procedure: FIG. 3. […] Coronary venous blood was collected into chilled 2N perchloric acid at various times before and after coronary artery occlusion. Supernatants from these extracts were neutralized with alamine and freon and evaluated by high performance liquid chromotography.
as §3

[9] = system: patients with adenylosuccinase deficiency (autism); experiment: Therapeutic trial in patients with adenylosuccinase deficiency (autism); type: in vivo, human
Text: Following authorization, therapeutic trials with AICA riboside were started in two patients with adenylosuccinase deficiency (autism). […] On Day 55, both patients were briefly readmitted for clinical, biochemical and psychiatric evaluation. […] Treatment was maintained until Day 71, and arrested at that date.

[10] = system: human splenic lymphoblast cell line (WI-L2); experiment: Adenosine release by WI-L2 lymphoblasts during ATP breakdown (2-deoxyglucose); type: cell-based
Procedure: The history and properties of the cell line have been described by Hershfield et al. in Science, Vol. 197, p. 1284, 1977.
Catabolism of cellular ATP stores was stimulated by adding either 2-deoxyglucose or a calcium ionophore. At various times, the amount of adenosine released by the cells into the supernatant, or the amount of nucleotides remaining in the cells, was determined by mixing 3 μl of chilled 4.4N perchloric acid with 300 μl of supernatants, or by adding 300 μl of chilled 0.4N perchloric acid to the cell collected as pellets and centrifuging the mixtures at 500×G for 10 minutes at 4° C. […] 1245, 1975. Following centrifugation at 1500×G for three minutes at 4° C., the aqueous phase is removed and frozen at -20° C. until assayed for adenosine, inosine, or for nucleotides. Adenosine was evaluated isocratically on a C-18 microBondapak reverse phase column equilibrated with 4 millimolar potassium phosphate, (pH 3.4):acetonitrile 60% in water (95:5 v/v) buffer. Adenosine elutes at 8-10 minutes, and its identity was confirmed by its sensitivity to adenosine deaminase and by spiking with adenosine standards. The extracted samples from the cell pellet were analyzed for nucleotides by high pressure liquid chromatography on a Whatman Partisil-10 (SAX) column equilibrated with 10 millimolar potassium phosphate, pH 3.78, and eluted with a linear gradient to a 0.25 molar potassium phosphate, 0.5 molar KCl, pH 3.45. […] Peaks were quantitated by comparison with high pressure liquid chromatography analysis of suitable standards.
Cells were grown to about 0.5×10^6 cells/ml (mid-log phase) in FIG. 2 and to about 1.0×10^6 cells/ml (early stationary phase) in FIGS. 7-9.

[11] = system: ischemia-induced arrhythmias; experiment: Arrhythmias during myocardial ischemia in dogs (electrocardiogram); type: in vivo, dog; conditions: individual treated dogs 1-6
Procedure: as §3
One consequence of myocardial ischemia is arrhythmia and the frequency of arrhythmias is related to the degree of reduced blood flow. […] Electrocardiograms recorded during ischemia of Example III were analyzed for the number of premature ventricular depolarizations (PVD) and ventricular tachycardia (VTAC) episodes.

[12] = system: AMP deaminase; experiment: AMP deaminase inhibition (14C-AMP to 14C-IMP conversion, lymphoblast lysate); type: biochemical, human; conditions: 200 μM of each ribotide
[13] = three-hour preincubation and four-hour incubation during 2-deoxyglucose treatment

AICA riboside in plasma and CSF ([9]; all dosages used): could not be detected | haematology and clinical chemistry parameters ([9]; before and during the trial treatment): found normal | AICA riboside in plasma ([9]; one hour after intravenous administration, 20 mg/kg/day): undetectable | concentration of ATP and GTP in the erythrocytes ([9]; patients): did not influence significantly | urinary output of succinyladenosine, SAICA riboside and uric acid ([9]; patients): without significant effect
SMILES: NC(=O)c1ncn([C@@H]2O[C@H](CO)[C@@H](O)[C@H]2O)c1N [AICA riboside, 5-amino-4-imidazolecarboxamide riboside]
Concentration of Adenosine ([1]; HPRT- cells, ionophore 0 μg/ml, AICA riboside 50 μM): < 0.01 µM | correction of lowered adenosine secretion of cells deficient in hypoxanthine phosphoribosyl transferase [1]: can be corrected | latency to seizure [2]: dramatic prolongation | supernatant leukotriene C4 concentration [3]: 13 nanograms/106 cells | systemic arterial pressure and heart rate versus saline ([4]; dog, in vivo): no significant differences | flow to normal myocardium ([4]; non-ischemic tissue): did not alter flow | β-hexosaminidase released ([5]; 100 micromolar, A23187 1 μg/ml, 28.8% in its absence): 17.6% | inosine levels in venous blood [6]: more than twofold decrease | adenosine secreted by treated cells versus control cells ([7]; 50 μM AICA riboside, A23187 and 1.0 μM deoxycoformycin): at least twofold more adenosine | Concentration of Adenosine ([7]; HPRT+ cells, ionophore 0 μg/ml, AICA riboside 50 μM): < 0.01 µM | peak coronary venous adenosine level ([8]; at 1 minute of ischemia, saline peak 0.22 ±0.08 at 10 minutes): 1.79 ± 0.35 µM | coronary venous adenosine level ([8]; at 60 minutes of ischemia, saline undetectable, in µM): 0.18±0.15 | adenosine washout on reperfusion ([8]; reperfusion): significant rise | adenosine in blood from the right atrium (systemic blood) ([8]; systemic sampling): no detectable adenosine | adenosine release from lymphoblasts ([10]; 48-hour pretreatment, 100-500 micromolar): enhances adenosine release | adenosine release from lymphoblasts ([10]; 18 hours preincubation before 2-deoxyglucose exposure): enhanced adenosine release | adenosine release from lymphoblasts [10, 13]: increased adenosine release | PVD, individual dogs [11]: 12 EPISODES/H and 10 EPISODES/H and 4 EPISODES/H and 13 EPISODES/H and 6 EPISODES/H | VTAC, individual dogs [11]: 1 EPISODES/H and 0 EPISODES/H and 27 EPISODES/H

SMILES: NC(=O)c1ncn([C@@H]2O[C@H](COP(=O)(O)O)[C@@H](O)[C@H]2O)c1N [AICA ribotide]
AMP deaminase inhibited [12]: 38%

SMILES: NC(=O)c1ncn([C@@H]2O[C@H](CO)[C@@H](O)[C@H]2O)n1 [ribavirin, 1-β-D-ribofuranosyl-1H-1,2,4-triazole-3-carboxamide, reference compound]
correction of lowered adenosine secretion of cells deficient in hypoxanthine phosphoribosyl transferase [1]: can be corrected | mediator release ([5]; 1 μM for six days): inhibits mediator release significantly | net β-hexosaminidase release versus controls ([5]; 1, 10, or 2 μm for six days, challenged with A23187): released significantly less | β-hexosaminidase release compared to cells cultured in media alone ([5]; three to seven days in 10 μM, washed, challenged with A23187, p<0.05): marked attenuation | adenosine release from lymphoblasts [10, 13]: Increased in vitro adenosine release | adenosine release from lymphoblasts ([10]; three-hour preincubation and four-hour incubation during 2-deoxyglucose treatment, listed as ribivirin): increased adenosine release

AMP deaminase inhibited [12]: 54%
SMILES: NC(=O)c1ncn([C@@H]2O[C@H](COP(=O)(O)O)[C@@H](O)[C@H]2O)n1 [ribavirin monophosphate]
